The nature of one data set: In vivo PK study in mice. Also noted: species or system mouse. Particulars: female BALB/c mice. An excerpt: Female BALB/c mice were used as assay animals to determine the blood concentration of the compound and evaluate the pharmacokinetic behavior after a single administration.
Four healthy adult female BALB/c mice were selected, wherein 2 mice were in an intravenous injection group and 2 mice were in an oral group. The vehicle in the intravenous injection group was 5% DMSO+95% (20% HP-β-CD). The compound to be assayed was mixed with an appropriate amount of vehicle for intravenous injection, vortexed and sonicated to prepare a clear solution of 0.5 mg/mL. The clear solution was filtered by a microporous membrane, and then ready for use. The vehicle in the oral group was 5% DMSO+95% (20% HP-β-CD). The compound to be assayed was mixed with the vehicle, vortexed and sonicated to prepare a solution of 0.3 mg/mL. Mice were administered 1 mg/kg intravenously or 3 mg/kg orally, and then whole blood was collected for a certain period. Plasma was prepared. The drug concentration was analyzed by LC-MS/MS method, and the pharmacokinetic parameters were calculated by Phoenix WinNonlin software (Pharsight, USA).

A further data set has as its target hERG potassium channel (Homo sapiens (Human), UniProt Q12809). Kind of data set: hERG assay (automated patch-clamp, CHO-hERG cells). Type of data set: cell-based. Particulars: Qpatch, highest assayed concentration 40 μM. The procedure:
A fully automated patch-clamp method was used to assay the effect of the compound on hERG potassium channel (human Ether-a-go-go Related Gene potassium channel) current.
CHO-hERG cells were cultured in a 175 cm^2 culture flask. When cells grew to a density of 60˜80%, the culture medium was removed. Cells were washed once with 7 mL of PBS (Phosphate Buffered Saline), and then 3 mL of Detachin was added for digestion. After the digestion was completed, 7 mL of culture medium was added for neutralization, and then the mixture was centrifuged. The supernatant was aspirated, and then 5 mL of culture medium was added to resuspend the cells and ensure that the cell density was 2˜5×10^6/mL.
Extracellular solution formulation (mM): 140 NaCl, 5 KCl, 1 CaCl2), 1.25 MgCl2, 10 HEPES and 10 Glucose: the formulation was adjusted to pH of 7.4 with NaOH. […]
The single-cell high-impedance sealing and whole-cell pattern formation processes were all automatically performed by a Qpatch instrument. […] This voltage stimulation was applied every 15 seconds, and recorded for 2 minutes. The extracellular solution was then given, and recorded for 5 minutes. […]
Assay data were analyzed by GraphPad Prism 5.0 software. […]
The inhibitory effect of Cisapride with multiple concentrations on the hERG channel was measured as a positive control.

Another data set deals with human plasma albumin. Kind of data set: Plasma protein binding (ultracentrifugation), human. Also: tested at 0.2 µM. Type of data set: in vitro ADME. As to the method: The binding degree of the assay compound to human/mouse/rat/canine/monkey plasma albumin was studied.
• 1) Matrix preparation: on the day of the assay, plasma was thawed in cold water and centrifuged at 3220 rpm for 5 min to remove all clots. The pH of the resulting plasma was measured and adjusted to 7.4±0.1 using 1% phosphoric acid or IN sodium hydroxide as needed. • 2) Dilution procedure for the assay compound: the assay compound was dissolved in dimethyl sulfoxide (DMSO) to prepare stock solutions with concentrations of 10 mM and 2 mM, respectively. A 40 μM working solution was prepared by diluting 2 μL of stock solution (2 mM) with 98 μL of DMSO. A 400 μM working solution of the control compound was prepared by diluting 10 μL of stock solution with 240 μL of DMSO. The working solution of the compound (5 μL) was mixed well with a blank matrix (995 μL) at a ratio of 1:200 to prepare a loading matrix.
• a) An equal volume of 30 μL of loading matrix (n=2) was transferred to a sample collection plate to prepare a time 0 (TO) sample for residue determination. The sample was immediately matched with the corresponding blank buffer to a final volume of 60 μL, and the volume ratio of plasma to buffer in each well was 1:1. […] The mixture was centrifuged at 4000 rpm for 20 min and 100 μL of supernatant from each sample was analyzed by LC-MS/MS.

Sequence of hERG potassium channel (Q12809 whole entry): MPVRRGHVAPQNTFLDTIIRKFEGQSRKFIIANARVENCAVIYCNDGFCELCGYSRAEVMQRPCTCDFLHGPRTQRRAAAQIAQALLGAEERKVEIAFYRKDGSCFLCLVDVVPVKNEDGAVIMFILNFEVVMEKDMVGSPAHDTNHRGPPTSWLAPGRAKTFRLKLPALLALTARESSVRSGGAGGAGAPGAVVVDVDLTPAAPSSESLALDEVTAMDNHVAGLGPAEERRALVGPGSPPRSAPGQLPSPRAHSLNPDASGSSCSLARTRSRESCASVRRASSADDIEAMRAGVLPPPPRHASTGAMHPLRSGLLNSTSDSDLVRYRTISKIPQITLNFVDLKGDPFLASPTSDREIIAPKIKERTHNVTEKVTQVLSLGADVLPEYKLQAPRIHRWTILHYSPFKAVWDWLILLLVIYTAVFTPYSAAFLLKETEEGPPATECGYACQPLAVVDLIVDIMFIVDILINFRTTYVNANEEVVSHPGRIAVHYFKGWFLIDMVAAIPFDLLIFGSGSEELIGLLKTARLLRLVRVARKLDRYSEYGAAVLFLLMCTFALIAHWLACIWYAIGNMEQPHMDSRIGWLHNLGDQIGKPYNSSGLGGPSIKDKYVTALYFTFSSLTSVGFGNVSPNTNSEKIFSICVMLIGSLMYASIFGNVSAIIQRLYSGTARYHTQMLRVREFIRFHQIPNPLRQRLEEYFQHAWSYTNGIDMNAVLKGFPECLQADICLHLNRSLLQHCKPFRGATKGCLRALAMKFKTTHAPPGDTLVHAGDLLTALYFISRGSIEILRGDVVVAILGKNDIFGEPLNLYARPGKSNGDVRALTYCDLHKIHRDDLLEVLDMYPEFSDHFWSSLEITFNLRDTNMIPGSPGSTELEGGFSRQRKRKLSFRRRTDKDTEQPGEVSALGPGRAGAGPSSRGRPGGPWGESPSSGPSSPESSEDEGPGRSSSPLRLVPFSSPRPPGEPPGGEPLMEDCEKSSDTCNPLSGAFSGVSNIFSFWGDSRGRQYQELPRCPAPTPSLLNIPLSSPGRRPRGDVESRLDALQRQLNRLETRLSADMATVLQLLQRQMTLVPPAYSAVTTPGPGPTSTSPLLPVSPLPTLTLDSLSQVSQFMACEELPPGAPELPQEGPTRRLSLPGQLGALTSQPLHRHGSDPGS

Consider `Cc1cccc(CN2C(=O)c3nc(-c4nc(Nc5ccnn5C)ncc4C)sc3C23COC3)n1` [WX001], for which the “Oral DNAUC” value in the data set “In vivo PK study in mice” (3 mg/kg orally, AUCPO/Dose) is 2935 nM · h/mpk. In the data set “In vivo PK study in mice” (mouse, plasma, intravenous, 1 mg/kg intravenously or 3 mg/kg orally), this compound registered a clearance of 18.9 mL/min/kg. Also, the Vd in the data set “In vivo PK study in mice” (mouse, plasma, intravenous, 1 mg/kg intravenously or 3 mg/kg orally, read-out: Vdss) stood at 1.23 L/kg. In addition, the half-life in “In vivo PK study in mice” (mouse, plasma, 1 mg/kg intravenously or 3 mg/kg orally) is 1.1 h. Moreover, the bioavailability in the data set “In vivo PK study in mice” (mouse, plasma, 1 mg/kg intravenously, 3 mg/kg orally, oral bioavailability) was determined as 154%. This compound came in with a Cmax in “In vivo PK study in mice” (mouse, single dose, 1 mg/kg intravenously or 3 mg/kg orally, plasma) of 4.79 µM. This compound showed a half-maximal inhibitory concentration (IC50) at hERG potassium channel of over 40 µM. In addition, the “Plasma protein binding rate (unbound %)” value in the data set with human plasma albumin is recorded as 15.9%.

In general, half-life refers to how long it takes for the measured level to halve. A lower half-life goes with rapid decline. For orientation: Cmax means the peak of the concentration-time curve. What is called IC50 is the midpoint of a concentration-inhibition curve.

For the origin of these results see patent publication US20240309018A1, “THIAZOLE-LACTAM-SPIROHETEROCYCLIC COMPOUNDS AND APPLICATIONS THEREOF” (D3 BIO (WUXI) CO., LTD, priority 2021, published 2024).
